In patent publication US7745574B2, “Compounds that regulate apoptosis” (The Burnham Institute, priority 2005, dated 2010):
Where a SMILES comes first, the peptide text is derived from it. Bridges are numbered along the chain shown (N, C = ends). [ ]: non-standard residue; d: D form. The star is where a group is joined. FITC = O=C1OC2(c3ccc(O)cc3Oc3cc(O)ccc32)c2ccc(NC(=S)*)cc21; Ahx = NCCCCCC(=O)O

Columns and labels:
[1] = tested on: various cancer cell lines; experiment: Apoptosis in various cancer cell lines; type: cell-based
Procedure: (§1) Apoptosis assays—For nuclear morphological change analysis, cells were trypsinized, washed with PBS, fixed with 3.7% paraformaldehyde, and stained with DAPI (4,6-diamidino-2-phenylindole) (50 μg/ml) to visualize the nuclei by UV-microscopy. The percentages of apoptotic cells were determined by counting 300 GFP-positive cells, scoring cells having nuclear fragmentation and/or chromatin condensation.

[2] = tested on: ZR-75-1 breast cancer cells; experiment: Apoptosis in ZR-75-1 breast cancer cells; type: cell-based; conditions: <10 μM peptide
Procedure: as §1

[3] = tested on: normal primary mammary epithelial cells; experiment: Apoptosis in normal primary mammary epithelial cells; type: cell-based
Procedure: as §1

H460 lung cancer cells = experiment: Apoptosis in H460 lung cancer cells; type: cell-based
Bcl-2 [4] = target: T1, Bcl-2 (Homo sapiens, UniProt P10415); experiment: Co-immunoprecipitation with Bcl-2 in HEK293T cells; type: binding; design: expressed in transfected cells; host or cells: HEK293T
Procedure: Nur77 peptide binds anti-apoptotic Bcl-2 family members. Nur77-peptide binds Bcl-B, Bfl-1, and Bcl-2, but not Mcl-1 and Bcl-xL. […] The expression vector for the GFP-Nur77/489-497 fusion was transfected into HEK293T cells together with or without the indicated expression vector for myc-tagged Bcl-2 family member. Cell lysates were prepared and analyzed for interaction of Nur77/489-497 with Bcl-2 family members by co-immunoprecipitation assay using anti-Myc antibody. Immunoprecipitates were then separated on SDS/PAGE and immunoblotted using anti-GFP antibody. […] Nur77/Bcl-2 interaction assays—Reporter gene assays using NurRE-tk-CAT in CV-1 cells, and GST pull-down assay were described previously (Li, et al. 2000 Science 289:1159-1164). For the mammalian two-hybrid assays, CV-1 cells were co-transfected with pcDNA-Gal4TAD-Nur77 or pcDNA-Gal4TAD-Nur77/ΔDBD and pcDNA-Gal4 DBD-Bcl-2/ΔTM along with a luciferase reporter gene driven by four copies of the Gal-4-binding site. The cells were harvested and reporter gene activity was measured. For Co-IP assays, HEK293T cells were transiently transfected with various expression plasmids using a modified calcium phosphate precipitation method (Wu et al, 1997) in the presence of caspase inhibitors (zVAD-fmk) to prevent degradation of Nur77 protein due to apoptosis. Cells were suspended in lysis buffer (50 mM Tris-HCl, PH7.4; 150 mM NaCl; 20 mM EDTA; 1% NP-40; 1 mM PMSF; 50 μg/ml Leupeptin; […]; 0.1 mM Na3VO4; and 1 mM DTT). Cells extracts were cleared by incubation with the Protein A/G plus Agarose beads (Santa Cruz) and then incubated with appropriate antibody and 30 μl of Protein A or G plus Agarose beads overnight at 4° C. […] Immunoreactive products were detected by chemiluminescence with an enhanced chemiluminescence system (ECL) (Amersham).
Target sequence in this assay (P10415 whole entry, the tested form may be a part): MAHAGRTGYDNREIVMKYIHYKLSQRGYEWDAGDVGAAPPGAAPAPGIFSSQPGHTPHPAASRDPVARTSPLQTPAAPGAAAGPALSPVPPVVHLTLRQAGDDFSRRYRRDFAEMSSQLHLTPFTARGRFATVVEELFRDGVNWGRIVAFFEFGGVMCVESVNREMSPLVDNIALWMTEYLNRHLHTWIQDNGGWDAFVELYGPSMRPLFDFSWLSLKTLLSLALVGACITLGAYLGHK

Bcl-2 [5] = target: T1, Bcl-2; experiment: Bcl-2 conformational change, anti-Bcl-2/BH3 antibody staining of HEK293T cells transfected with Bcl-2; type: cell-based; design: expressed in transfected cells; host or cells: HEK293T; conditions: flow cytometry
Procedure: Such a Bcl-2 conformation is recognized by an anti-Bcl-2 antibody raised against the Bcl-2 BH3 domain. To determine whether NuBCP-9 induced a Bcl-2 conformational change, flow cytometric assays were conducted which HEK293T cells transfected with Bcl-2 were exposed to NuBCPs and subsequently stained with the anti-Bcl-2/BH3 antibody.
Target sequence in this assay (P10415 whole entry, the tested form may be a part): as above

Bcl-2 [6] = target: T1, Bcl-2; experiment: Immunoprecipitation of endogenous Bcl-2 by anti-Bcl-2/BH3 antibody in treated cells; type: cell-based; design: precipitated endogenous Bcl-2 in cells treated with L-NuBCP-9-r8 or D-NuBCP-9-r8; endogenous in cells
Target sequence in this assay (P10415 whole entry, species assumed, the tested form may be a part): as the sequence (P10415 whole entry, the tested form may be a part) above

GST-Bcl-2 [7] = target: T2, GST-Bcl-2 (Homo sapiens, UniProt P10415); experiment: Fluorescence polarization (FP) assay, GST-Bcl-2; type: binding
T2 construct: made in house
T2 sequence (P10415 whole entry): as the sequence (P10415 whole entry, the tested form may be a part) above
Procedure: (§2) Fluorescence polarization (FP) assays. GST-Bcl-2, GST-Bcl-XL, or GST protein was briefly incubated with FITC-conjugated peptide with or without competitors in Greiner Fluotrac 600 96-well microplates. Fluorescence polarization was recorded using an Analyst HT 96-384 microplate reader (Molecular Devices, Sunnyvale, Calif.) with excitation wavelength set at 485 nm and dynamic polarizer for emission at 530 nm.

GST-Bcl-XL = GST-Bcl-XL (Homo sapiens, UniProt Q07817); experiment: Fluorescence polarization (FP) assay, GST-Bcl-XL; type: binding
Chain of GST-Bcl-XL (Q07817 whole entry, species assumed): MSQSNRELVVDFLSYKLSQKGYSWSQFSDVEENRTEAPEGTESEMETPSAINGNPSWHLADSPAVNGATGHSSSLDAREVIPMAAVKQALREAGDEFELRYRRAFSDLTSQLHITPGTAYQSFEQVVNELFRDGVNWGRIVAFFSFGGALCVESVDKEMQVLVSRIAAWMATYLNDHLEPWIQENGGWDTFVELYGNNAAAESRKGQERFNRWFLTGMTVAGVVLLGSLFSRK
Procedure: as §2

GST [8] = target: T3, GST (Schistosoma japonicum, UniProt P08515); experiment: Fluorescence polarization (FP) assay, GST; type: binding
T3 sequence (P08515 whole entry): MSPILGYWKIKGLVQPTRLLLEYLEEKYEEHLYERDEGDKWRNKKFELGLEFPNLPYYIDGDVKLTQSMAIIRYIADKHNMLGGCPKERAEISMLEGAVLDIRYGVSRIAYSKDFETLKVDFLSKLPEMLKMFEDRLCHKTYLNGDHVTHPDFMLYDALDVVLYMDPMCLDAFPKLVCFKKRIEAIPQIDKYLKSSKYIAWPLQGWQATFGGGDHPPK
Procedure: as §2

Bcl-2 [9] = target: T1, Bcl-2; experiment: FP competition assay on Bcl-2; type: binding
Procedure: as §2
Target sequence in this assay (P10415 whole entry, the tested form may be a part): as the sequence (P10415 whole entry, the tested form may be a part) above

GST-Bcl-2 [10] = target: T2, GST-Bcl-2; experiment: Circular dichroism (CD) spectroscopy, GST-Bcl-2; type: binding
Procedure: (§3) Circular dichroism (CD) spectroscopy. Stock solutions of 3 mM peptide in 30% acetonitrile/water were added to 0.5 mL of 2 μM purified GST-proteins in PBS, pH 7.6. CD spectra were obtained in a 0.2 cm pathlength cell at 20° C. using an AVIV 62 DS spectropolarimeter for a wavelength range from 200 to 260 nm with a step size of 1 nm averaged for 5 sec. Three spectra were corrected for background and averaged for each sample. The Kd was determined using nonlinear regression analysis for a one-site-binding model (χ2>0.98). Stoichiometry was determined from a […] (Jones, G. et al. 2002 Tet. Let. 43 :6079-6082).

Bcl-XL = Bcl-XL (Homo sapiens, UniProt Q07817); experiment: Circular dichroism (CD) spectroscopy, Bcl-XL; type: binding
Chain of Bcl-XL (Q07817 whole entry, species assumed): as the sequence (Q07817 whole entry, species assumed) above
Procedure: as §3

GST [11] = target: T3, GST; experiment: Circular dichroism (CD) spectroscopy, GST; type: binding
Procedure: as §3

Jurkat or CEM cells = experiment: Apoptosis in Jurkat or CEM cells stably expressing Bcl-2; type: cell-based
Procedure: Cell culture. H460 lung cancer cells were maintained in RPMI 1640 medium supplemented with 10% fetal bovine serum (FBS). HEK293T embryonic kidney cells were grown in DME medium supplemented with 10% FBS. Jurkat and Jurkat cells stably expressing Bcl-2 were kindly provided by Dr. John Reed, and they were maintained in RPMI1640 medium.

Bcl-2 [12] = target: T1, Bcl-2; experiment: Binding to Bcl-2, method not stated; design: precipitated endogenous Bcl-2 in cells treated with L-NuBCP-9-r8 or D-NuBCP-9-r8; endogenous in cells
Target sequence in this assay (P10415 whole entry, species assumed, the tested form may be a part): as the sequence (P10415 whole entry, the tested form may be a part) above

Compound: acetyl---GDWIDSILAFSRSLHSLLVDKKC-X-rrrrrrrr (Ac-GDWIDSILAFSRSLHSLLVDKKC[Ahx][dR][dR][dR][dR][dR][dR][dR][dR]-NH2; also: Cys thiol joined to chloroacetyl-Ahx by thioether) [NuBCP-20-r8]
- apoptotic effects [1]: potent apoptotic effects
- apoptosis [2]: > 80%
- apoptosis [3]: resistant
- apoptotic potency compared with BH3 peptides derived from t-Bid (H460 lung cancer cells): more potent
- interaction with Bcl-2 by co-immunoprecipitation (Bcl-2 [4]): binding

Compound: t-Bid BH3 peptide-r8: BH3 peptide derived from pro-apoptotic Bcl-2 family member t-Bid, conjugated with r8 (Ac-EDIIRNIARHLAQVGDSMDRC[Ahx][dR][dR][dR][dR][dR][dR][dR][dR]-NH2; also: Cys thiol joined to chloroacetyl-Ahx by thioether) [reference compound]
- Bcl-2 immunofluorescence by anti-Bcl-2/BH3 antibody (Bcl-2 [5]): did not show any Bcl-2 immunofluorescence
- precipitation of endogenous Bcl-2 by anti-Bcl-2/BH3 antibody (Bcl-2 [6]): not

Compound: FITC-NuBCP-9-r8: FITC-conjugated NuBCP-9-r8 peptide for FP assays ({FITC}-FSRSLHSLLG[Ahx][dR][dR][dR][dR][dR][dR][dR][dR]-NH2)
- FP of FITC-peptide induced by GST-Bcl-2 (GST-Bcl-2 [7]): concentration-dependent FP
- FP of FITC-peptide induced by GST-Bcl-XL (GST-Bcl-XL): not
- FP of FITC-peptide induced by GST (GST [8]): not

Compound: NuBCP-9/AA: unconjugated NuBCP-9 with Ala substituted for the terminal amino acids (Ac-ASRSLHSLAG[Ahx][dR][dR][dR][dR][dR][dR][dR][dR]-NH2; SMILES CC(=O)N[C@@H](C)C(=O)N[C@@H](CO)C(=O)N[C@@H](CCCNC(=N)N)C(=O)N[C@@H](CO)C(=O)N[C@@H](CC(C)C)C(=O)N[C@@H](Cc1c[nH]cn1)C(=O)N[C@@H](CO)C(=O)N[C@@H](CC(C)C)C(=O)N[C@@H](C)C(=O)NCC(=O)NCCCCCC(=O)N[C@H](CCCNC(=N)N)C(=O)N[C@H](CCCNC(=N)N)C(=O)N[C@H](CCCNC(=N)N)C(=O)N[C@H](CCCNC(=N)N)C(=O)N[C@H](CCCNC(=N)N)C(=O)N[C@H](CCCNC(=N)N)C(=O)N[C@H](CCCNC(=N)N)C(=O)N[C@H](CCCNC(=N)N)C(N)=O)
- competition for binding of FITC-L-NuBCP-9-r8 or FITC-D-NuBCP-9-r8 to Bcl-2 (Bcl-2 [9]): did not
- changes in GST-Bcl-2 protein CD spectra (GST-Bcl-2 [10]; peptide 30 μM, GST-Bcl-2 2 μM): not
- effect on CD spectra for Bcl-XL (Bcl-XL): no effect
- effect on CD spectra for GST (GST [11]): no effect

Compound: CN[C@@H]1C[C@H]2O[C@@](C)([C@@H]1OC)n1c3ccccc3c3c4c(c5c6ccccc6n2c5c31)C(=O)NC4 [staurosporine]
- effect of stable expression of Bcl-2 on induced apoptosis/cell death (Jurkat or CEM cells): attenuated

Compound: CC(=O)N[C@@H](Cc1ccccc1)C(=O)N[C@@H](CO)C(=O)N[C@@H](CCCNC(=N)N)C(=O)N[C@@H](CO)C(=O)N[C@@H](CC(C)C)C(=O)N[C@@H](Cc1c[nH]cn1)C(=O)N[C@@H](CO)C(=O)N[C@@H](CC(C)C)C(=O)N[C@@H](CC(C)C)C(N)=O [NuBCP-9, FSRSLHSLL] (Ac-FSRSLHSLL-NH2)
- competition for binding of FITC-L-NuBCP-9-r8 or FITC-D-NuBCP-9-r8 to Bcl-2 (Bcl-2 [9]): competed
- Kd (GST-Bcl-2 [10]): 2.1 ± 0.2 µM
- effect on CD spectra for Bcl-XL (Bcl-XL): no effect
- effect on CD spectra for GST (GST [11]): no effect

Compound: FITC-NuBCP-9/AA-r8: FITC-conjugated NuBCP-9/AA-r8 peptide ({FITC}-ASRSLHSLAG[Ahx][dR][dR][dR][dR][dR][dR][dR][dR]-NH2)
- FP of FITC-peptide induced by GST-Bcl-2 (GST-Bcl-2 [7]): little affected

Compound: Bad BH3 peptide-CC-Ant: Bad BH3 peptide, Ser replaced with Ala, disulfide-linked to Ant (Ac-NLWAAQRYGRELRRMADEFVDAFKKCCRQIKIWFQNRRMKWKK-NH2; disulfide 26-27; also: Bad BH3 peptide and Ant are two peptides joined by C26-C27 disulfide, no peptide bond)
- effect of stable expression of Bcl-2 on induced apoptosis/cell death (Jurkat or CEM cells): attenuated

Compound: CN(C)CC[C@H](CSc1ccccc1)Nc1ccc(S(=O)(=O)NC(=O)c2ccc(N3CCN(Cc4ccccc4-c4ccc(Cl)cc4)CC3)cc2)cc1[N+](=O)[O-] [ABT-737, reference compound]
- competition for binding of FITC-L-NuBCP-9-r8 or FITC-D-NuBCP-9-r8 to Bcl-2 (Bcl-2 [9]): failure

Compound: D-Bad BH3 peptide-CC-Ant: D-enantiomer of Bad BH3 peptide, disulfide-linked to Ant (Ac-NLWAAQRYGRELRRMADEFVDAFKKCCRQIKIWFQNRRMKWKK-NH2; disulfide 26-27; not fully specified (some residues); also: D-amino acids, extent within chain not given here) [reference compound]
- apoptotic effect (H460 lung cancer cells; H460 cells, peptides conjugated with CPP, 10 μM): not apoptotic
- binding to Bcl-2 (Bcl-2 [12]): did not bind
